Experimental data reported in US8680108B2, “Substituted fused aryl and heteroaryl derivatives as PI3K inhibitors” (Incyte Corporation, priority 2009, dated 2014).
Where two headings read alike, the source gives them in different places.

Biological target: T1, PI3Kδ (p110δ/p85α) (Homo sapiens, UniProt O00329)
T1 construct: purchased Millipore (Bedford, Mass.)
Experiment: PI3Kδ scintillation proximity assay
Assay type: biochemical
Source text: Materials: [γ-^33P]ATP (10 mCi/mL) was purchased from Perkin-Elmer (Waltham, Mass.). Lipid kinase substrate, D-myo-Phosphatidylinositol 4,5-bisphosphate (PtdIns(4,5)P2)D (+)-sn-1,2-di-O-octanoylglyceryl, 3-O-phospho linked (PIP2), CAS 204858-53-7, was purchased from Echelon Biosciences (Salt Lake City, Utah). PI3Kδ (p110δ/p85α) was purchased from Millipore (Bedford, Mass.). ATP, MgCl2, DTT, EDTA, MOPS and CHAPS were purchased from Sigma-Aldrich (St. Louis, Mo.). Wheat Germ Agglutinin (WGA) YSi SPA Scintillation Beads was purchased from GE healthcare life sciences (Piscataway, N.J.).
Assay: The kinase reaction was conducted in polystyrene 384-well matrix white plate from Thermo Fisher Scientific in a final volume of 25 μL. Inhibitors were first diluted serially in DMSO and added to the plate wells before the addition of other reaction components. The final concentration of DMSO in the assay was 0.5%. The PI3K assays were carried out at room temperature in 20 mM MOPS, pH 6.7, 10 mM MgCl2, 5 mM DTT and CHAPS 0.03%. Reactions were initiated by the addition of ATP, the final reaction mixture consisted of 20 μM PIP2, 20 μM ATP, 0.2 μCi [γ-^33P] ATP, 4 nM PI3Kδ. Reactions were incubated for 210 minutes and terminated by the addition of 40 μL SPA beads suspended in quench buffer: 150 mM potassium phosphate pH 8.0, 20% glycerol. 25 mM EDTA, 400 μM ATP. The final concentration of SPA beads is 1.0 mg/mL. After the plate sealing, plates were shaken overnight at room temperature and centrifuged at 1800 rpm for 10 minutes, the radioactivity of the product was determined by scintillation counting on Topcount (Perkin-Elmer). IC50 determination was performed by fitting the curve of percent control activity versus the log of the inhibitor concentration using the GraphPad Prism® 3.0 software.

T1 sequence (O00329 whole entry): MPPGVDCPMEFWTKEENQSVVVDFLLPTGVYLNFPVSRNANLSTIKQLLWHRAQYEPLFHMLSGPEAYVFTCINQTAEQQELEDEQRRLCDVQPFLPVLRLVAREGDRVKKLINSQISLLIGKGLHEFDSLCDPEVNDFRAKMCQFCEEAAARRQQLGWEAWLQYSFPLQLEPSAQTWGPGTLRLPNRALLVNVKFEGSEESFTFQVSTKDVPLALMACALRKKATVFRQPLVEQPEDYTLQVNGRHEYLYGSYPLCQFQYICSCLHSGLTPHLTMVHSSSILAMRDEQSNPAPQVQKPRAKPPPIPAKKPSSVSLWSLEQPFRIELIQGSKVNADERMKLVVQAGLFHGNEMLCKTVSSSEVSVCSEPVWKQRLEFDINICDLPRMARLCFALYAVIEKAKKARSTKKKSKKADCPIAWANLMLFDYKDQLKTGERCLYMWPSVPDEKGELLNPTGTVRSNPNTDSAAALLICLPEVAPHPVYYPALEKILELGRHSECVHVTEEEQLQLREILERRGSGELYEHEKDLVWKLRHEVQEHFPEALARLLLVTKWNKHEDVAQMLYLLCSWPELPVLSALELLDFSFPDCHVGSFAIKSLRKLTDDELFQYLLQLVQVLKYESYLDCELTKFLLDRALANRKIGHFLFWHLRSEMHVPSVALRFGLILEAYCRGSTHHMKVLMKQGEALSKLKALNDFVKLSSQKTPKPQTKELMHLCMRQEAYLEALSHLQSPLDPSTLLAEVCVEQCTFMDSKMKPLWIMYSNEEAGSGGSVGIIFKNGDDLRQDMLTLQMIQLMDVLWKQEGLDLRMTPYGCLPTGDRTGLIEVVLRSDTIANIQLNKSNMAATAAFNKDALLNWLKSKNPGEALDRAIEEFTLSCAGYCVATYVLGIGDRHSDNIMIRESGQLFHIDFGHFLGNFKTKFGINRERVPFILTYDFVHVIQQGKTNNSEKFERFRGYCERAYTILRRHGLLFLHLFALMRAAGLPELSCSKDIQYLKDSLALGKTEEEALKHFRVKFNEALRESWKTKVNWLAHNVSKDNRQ
T1 sequence (P27986 whole entry partner): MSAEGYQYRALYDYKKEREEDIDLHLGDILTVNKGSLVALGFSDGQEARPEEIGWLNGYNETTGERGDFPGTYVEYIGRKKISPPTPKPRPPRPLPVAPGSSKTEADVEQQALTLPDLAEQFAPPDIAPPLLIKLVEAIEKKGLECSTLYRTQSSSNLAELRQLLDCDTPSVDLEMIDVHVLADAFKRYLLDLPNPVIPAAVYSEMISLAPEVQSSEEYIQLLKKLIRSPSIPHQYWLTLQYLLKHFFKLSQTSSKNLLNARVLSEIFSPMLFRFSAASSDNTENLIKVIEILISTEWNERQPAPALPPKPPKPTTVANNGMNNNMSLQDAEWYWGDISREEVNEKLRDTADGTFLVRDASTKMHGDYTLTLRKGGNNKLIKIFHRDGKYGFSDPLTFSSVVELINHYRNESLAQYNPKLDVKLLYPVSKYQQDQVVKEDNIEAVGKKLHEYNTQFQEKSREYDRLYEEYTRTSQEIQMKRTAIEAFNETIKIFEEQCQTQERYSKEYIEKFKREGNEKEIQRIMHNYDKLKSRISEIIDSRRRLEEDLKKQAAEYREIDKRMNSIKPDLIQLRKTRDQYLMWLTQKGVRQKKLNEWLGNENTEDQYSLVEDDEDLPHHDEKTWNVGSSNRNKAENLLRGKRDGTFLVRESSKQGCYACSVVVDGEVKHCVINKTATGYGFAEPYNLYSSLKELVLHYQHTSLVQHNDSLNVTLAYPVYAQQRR

SMILES	IC50 (separated isomer, 1st peak)	IC50 (separated isomer, 2nd peak)	IC50
CCC(=O)N[C@H]1CCN(c2c(C(C)Nc3ncnc4[nH]cnc34)cc(Cl)c3cccnc23)C1 (stereo partly drawn) [Example 77, N-((3S)-1-{5-Chloro-7-[1-(9H-purin-6-ylamino)ethyl]quinolin-8-yl}pyrrolidin-3-yl)propanamide tris(trifluoroacetate)]	> 1000 nM	< 50 nM	–
CC(Nc1ncnc2[nH]cnc12)c1cc(Cl)c2cccnc2c1N1CCC(NS(C)(=O)=O)CC1 (stereo not drawn) [Example 81, N-(1-{5-Chloro-7-[1-(9H-purin-6-ylamino)ethyl]quinolin-8-yl}piperidin-4-yl)methanesulfonamide bis(trifluoroacetate)]	–	–	100 to 250 nM
CC(Nc1ncnc2[nH]cnc12)c1cc(Cl)c2cccnc2c1N1CCN(C(=O)c2ccccc2)CC1 (stereo not drawn) [Example 89, N-(1-[8-(4-Benzoylpiperazin-1-yl)-5-chloroquinolin-7-yl]ethyl}-9H-purin-6-amine bis(trifluoroacetate)]	–	–	50 to 100 nM
CC(Nc1ncnc2[nH]cnc12)c1cc(Cl)c2cccnc2c1N1CCN(C(=O)c2ccc(F)cc2)CC1 (stereo not drawn) [Example 91, N-(1-{5-Chloro-8-[4-(4-fluorobenzoyl)piperazin-1-yl]quinolin-7-yl}ethyl)-9H-purin-6-amine bis(trifluoroacetate)]	–	–	100 to 250 nM
CC(Nc1ncnc2[nH]cnc12)c1cc(Cl)c2cccnc2c1N1CCN(C(=O)c2cccc(F)c2)CC1 (stereo not drawn) [Example 92, N-(1-{5-Chloro-8-[4-(3-fluorobenzoyl)piperazin-1-yl]quinolin-7-yl}ethyl)-9H-purin-6-amine bis(trifluoroacetate)]	–	–	100 to 250 nM
CC(Nc1ncnc2[nH]cnc12)c1cc(Cl)c2cccnc2c1N1CCN(C(=O)c2ccccc2F)CC1 (stereo not drawn) [Example 93, N-(1-{5-Chloro-8-[4-(2-fluorobenzoyl)piperazin-1-yl]quinolin-7-yl}ethyl)-9H-purin-6-amine bis(trifluoroacetate)]	–	–	250 to 500 nM
CC(Nc1ncnc2[nH]cnc12)c1cc(Cl)c2cccnc2c1N1CCN(C(=O)c2cccnc2)CC1 (stereo not drawn) [Example 96, N-(1-{5-Chloro-8-[4-(pyridin-3-ylcarbonyl)piperazin-1-yl]quinolin-7-yl}ethyl)-9H-purin-6-amine tris(trifluoroacetate)]	–	–	< 50 nM
CC(Nc1ncnc2[nH]cnc12)c1cc(Cl)c2cccnc2c1N1CCN(C(=O)c2cnccn2)CC1 (stereo not drawn) [Example 97, N-(1-{5-Chloro-8-[4-(pyrazin-2-ylcarbonyl)piperazin-1-yl]quinolin-7-yl}ethyl)-9H-purin-6-amine bis(trifluoroacetate)]	–	–	< 50 nM
CC(Nc1ncnc2[nH]cnc12)c1cc(Cl)c2cccnc2c1N1CCN(C(=O)c2ccncc2)CC1 (stereo not drawn) [Example 98, N-{1-[5-Chloro-8-(4-isonicotinoylpiperazin-1-yl)quinolin-7-yl]ethyl}-9H-purin-6-amine tris(trifluoroacetate)]	–	–	< 50 nM
Cc1cc(C(=O)N2CCN(c3c(C(C)Nc4ncnc5[nH]cnc45)cc(Cl)c4cccnc34)CC2)no1 (stereo not drawn) [Example 99, N-[1-(5-Chloro-8-{4-[(5-methylisoxazol-3-yl)carbonyl]piperazin-1-yl}quinolin-7-yl)ethyl]-9H-purin-6-amine bis(trifluoroacetate)]	–	–	< 50 nM
Cc1noc(C)c1C(=O)N1CCN(c2c(C(C)Nc3ncnc4[nH]cnc34)cc(Cl)c3cccnc23)CC1 (stereo not drawn) [Example 100, N-[1-(5-Chloro-8-{4-[(3,5-dimethylisoxazol-4-yl)carbonyl]piperazin-1-yl}quinolin-7-yl)ethyl]-9H-purin-6-amine bis(trifluoroacetate)]	–	–	< 50 nM
CC(Nc1ncnc2[nH]cnc12)c1cc(Cl)c2cccnc2c1N1CCN(C(=O)c2ccn(C)n2)CC1 (stereo not drawn) [Example 101, N-[1-(5-Chloro-8-{4-[(1-methyl-1H-pyrazol-3-yl)carbonyl]piperazin-1-yl}quinolin-7-yl)ethyl]-9H-purin-6-amine bis(trifluoroacetate)]	–	–	< 50 nM
CC(Nc1ncnc2[nH]cnc12)c1cc(F)c2cccnc2c1-c1cccc(F)c1 (stereo not drawn) [Example 102, N-{1-[5-fluoro-8-(3-fluorophenyl)quinolin-7-yl]ethyl}-9H-purin-6-amine]	< 50 nM	> 1000 nM	–
CC(Nc1ncnc2[nH]cnc12)c1cc(F)c2cccnc2c1N1CCN(C(=O)c2cnn(C)c2)CC1 (stereo not drawn) [Example 103, N-[1-(5-Fluoro-8-{4-[(1-methyl-1H-pyrazol-4-yl)carbonyl]piperazin-1-yl}quinolin-7-yl)ethyl]-9H-purin-6-amine bis(trifluoroacetate)]	–	–	< 50 nM
CC(Nc1ncnc2[nH]cnc12)c1cc(Cl)c2conc2c1-c1cccc(F)c1 (stereo not drawn) [Example 104, N-{1-[4-Chloro-7-(3-fluorophenyl)-2,1-benzisoxazol-6-yl]ethyl}-9H-purin-6-amine]	–	–	< 50 nM
CC(Nc1ncnc2[nH]cnc12)c1cc(Cl)c2cn[nH]c2c1-c1cccc(F)c1 (stereo not drawn) [Example 105, N-{1-[4-Chloro-7-(3-fluorophenyl)-1H-indazol-6-yl]ethyl}-9H-purin-6-amine]	–	–	< 50 nM
CC(Nc1ncnc2[nH]cnc12)c1cc(Cl)c2cn[nH]c2c1-c1cc(F)cc(F)c1 (stereo not drawn) [Example 106, N-{1-[4-Chloro-7-(3,5-difluorophenyl)-1H-indazol-6-yl]ethyl)-9H-purin-6-amine]	–	–	< 50 nM
CC(Nc1ncnc2[nH]cnc12)c1cc(Cl)c2cnn(C)c2c1-c1cc(F)cc(F)c1 (stereo not drawn) [Example 107]	–	–	< 50 nM

More lines, now with the values ahead:

IC50 (separated isomer, 1st peak)	IC50 (separated isomer, 2nd peak)	IC50	SMILES
–	–	< 50 nM	CC(=O)NC1CCN(c2c(C(C)Nc3ncnc4[nH]cnc34)cc(Cl)c3cccnc23)CC1 (stereo not drawn) [Example 82, N-(1-{5-Chloro-7-[1-(9H-purin-6-ylamino)ethyl]quinolin-8-yl}piperidin-4-yl)acetamide bis(trifluoroacetate)]
–	–	< 50 nM	COC(=O)NC1CCN(c2c(C(C)Nc3ncnc4[nH]cnc34)cc(Cl)c3cccnc23)CC1 (stereo not drawn) [Example 83, Methyl(1-{5-Chloro-7-[1-(9H-purin-6-ylamino)ethyl]quinolin-8-yl}piperidin-4-yl)carbamate bis(trifluoroacetate)]
–	–	< 50 nM	CC(Nc1ncnc2[nH]cnc12)c1cc(Cl)c2cccnc2c1N1CCN(C(=O)C2CC2)CC1 (stereo not drawn) [Example 84, N-(1-{5-Chloro-8-[4-(cyclopropylcarbonyl)piperazin-1-yl]quinolin-7-yl}ethyl)-9H-purin-6-amine bis(trifluoroacetate)]
–	–	< 50 nM	COC(=O)N1CCN(c2c(C(C)Nc3ncnc4[nH]cnc34)cc(Cl)c3cccnc23)CC1 (stereo not drawn) [Example 85, Methyl 4-{5-Chloro-7-[1-(9H-purin-6-ylamino)ethyl]quinolin-8-yl}piperazine-1-carboxylatebis(trifluoroacetate)]
–	–	< 50 nM	CC(Nc1ncnc2[nH]cnc12)c1cc(Cl)c2cccnc2c1N1CCN(C(=O)C2CCC2)CC1 (stereo not drawn) [Example 86, N-(1-{5-Chloro-8-[4-(cyclobutylcarbonyl)piperazin-1-yl]quinolin-7-yl}ethyl)-9H-purin-6-amine bis(trifluoroacetate)]
–	–	< 50 nM	COCC(=O)N1CCN(c2c(C(C)Nc3ncnc4[nH]cnc34)cc(Cl)c3cccnc23)CC1 (stereo not drawn) [Example 87, N-(1-{5-Chloro-8-[4-(methoxyacetyl)piperazin-1-yl]quinolin-7-yl}ethyl)-9H-purin-6-amine bis(trifluoroacetate)]
–	–	< 50 nM	CC(Nc1ncnc2[nH]cnc12)c1cc(Cl)c2cccnc2c1N1CCN(C(=O)N(C)C)CC1 (stereo not drawn) [Example 88, 4-{5-Chloro-7-[1-(9H-purin-6-ylamino)ethyl]quinolin-8-yl}-N,N-dimethylpiperazine-1-carboxamide bis(trifluoroacetate)]
–	–	< 50 nM	CC(Nc1ncnc2[nH]cnc12)c1cc(Cl)c2cccnc2c1N1CCN(CC(=O)N(C)C)CC1 (stereo not drawn) [Example 90, 2-(4-{5-Chloro-7-[1-(9H-purin-6-ylamino)ethyl]quinolin-8-yl}piperazin-1-yl)-N,N-dimethylacetamide tris(trifluoroacetate)]
–	–	< 50 nM	CC(=O)N1CCC(C(=O)N2CCN(c3c(C(C)Nc4ncnc5[nH]cnc45)cc(Cl)c4cccnc34)CC2)CC1 (stereo not drawn) [Example 94, N-[1-(8-{4-[(1-Acetylpiperidin-4-yl)carbonyl]piperazin-1-yl}-5-chloroquinolin-7-yl)ethyl]-9H-purin-6-amine bis(trifluoroacetate)]
–	–	< 50 nM	CC(Nc1ncnc2[nH]cnc12)c1cc(Cl)c2cccnc2c1N1CCN(C(=O)c2ccccn2)CC1 (stereo not drawn) [Example 95, N-(1-{5-Chloro-8-[4-(pyridin-2-ylcarbonyl)piperazin-1-yl]quinolin-7-yl}ethyl)-9H-purin-6-amine tris(trifluoroacetate)]
